Laboratory results published in patent US20250195521A1 (Revolution Medicines, Inc., priority 2020, published 2025).
Read-outs that look alike come from different tables or passages of the source.

Tests used:
[1] = test system: NCI-H358 cells (K-Ras G12C); assay: CellTiter-Glo cell viability, NCI-H358; format: cell-based, human; details: Homo sapiens, NCI-H358, 120 h, read-out: H358 Cell Viability IC50
Procedure, shortened: (§1)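 Compounds were dispensed directly onto seeded cells and incubated until day 5, then plates were equilibrated at room temperature for about 30 min before CellTiter-Glo luminescence readout. Signals were normalized as (sample/average DMSO)×100 and fitted with a four-parameter logistic model.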

[2] = test system: Capan-1 cells (K-Ras G12V); assay: CellTiter-Glo cell viability, Capan-1; format: cell-based, human; details: Homo sapiens, CAPAN-1, 120 h, read-out: Capan-1 Cell Viability IC50
Procedure, shortened: as §1

[3] = target: KRAS G12C (Homo sapiens (Human), UniProt P01116+P62937, G12C); assay: Ras-Raf disruption/FRET/MOA assay (BRAF RBD, Cyclophilin A); format: biochemical; details: read-out: KRAS G12C FRET IC50
KRAS G12C, sequence (P01116-2 other isoform, or with tags, fused parts or gaps G12C): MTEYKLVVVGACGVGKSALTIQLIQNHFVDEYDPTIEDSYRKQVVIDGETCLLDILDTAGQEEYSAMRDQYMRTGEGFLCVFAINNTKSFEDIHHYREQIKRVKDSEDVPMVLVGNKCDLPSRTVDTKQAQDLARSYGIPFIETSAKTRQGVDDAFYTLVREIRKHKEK
KRAS G12C, sequence (P62937 whole entry): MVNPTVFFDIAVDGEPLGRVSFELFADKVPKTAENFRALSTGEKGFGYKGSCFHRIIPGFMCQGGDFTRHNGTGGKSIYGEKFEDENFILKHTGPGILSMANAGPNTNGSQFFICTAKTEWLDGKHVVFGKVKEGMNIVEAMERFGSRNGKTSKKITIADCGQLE
Procedure, shortened: (§2)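 TR-FRET read after 1.5 h with 10 nM anti-His Eu-W1024 and 50 nM anti-GST APC, following 3 h at 25 °C of GMPPNP-loaded His6-Ras (12.5 nM), GST-BRAF RBD (50 nM) and Cyclophilin A (25 μM) with compound from 30 μM final, 10 points, 3-fold. IC50 reported; pH 7.3 HEPES, 100 mM NaCl.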

[4] = target: KRAS G12D (Homo sapiens (Human), UniProt P01116+P62937, G12D); assay: as above; format: biochemical; details: read-out: KRAS G12D FRET IC50
KRAS G12D, sequence (P01116 other isoform, or with tags, fused parts or gaps G12D): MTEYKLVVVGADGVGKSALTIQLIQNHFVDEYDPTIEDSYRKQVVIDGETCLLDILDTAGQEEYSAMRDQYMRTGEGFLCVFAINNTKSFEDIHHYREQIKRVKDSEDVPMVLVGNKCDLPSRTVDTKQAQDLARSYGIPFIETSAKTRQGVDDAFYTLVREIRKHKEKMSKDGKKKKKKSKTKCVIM
KRAS G12D, sequence (P62937 whole entry): as the sequence (P62937 whole entry) above
Procedure, shortened: as §2

[5] = target: KRAS G12S (Homo sapiens (Human), UniProt P01116+P62937, G12S); assay: as above; format: biochemical; details: read-out: KRAS G12S FRET IC50
KRAS G12S, sequence (P01116 other isoform, or with tags, fused parts or gaps G12S): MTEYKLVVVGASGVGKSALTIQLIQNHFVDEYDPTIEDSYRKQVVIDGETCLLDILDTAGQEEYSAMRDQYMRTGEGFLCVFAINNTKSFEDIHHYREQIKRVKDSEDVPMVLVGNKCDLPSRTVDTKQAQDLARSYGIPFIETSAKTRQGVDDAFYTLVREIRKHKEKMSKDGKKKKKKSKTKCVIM
KRAS G12S, sequence (P62937 whole entry): as the sequence (P62937 whole entry) above
Procedure, shortened: as §2

[6] = target: KRAS G12V (Homo sapiens (Human), UniProt P01116+P62937, G12V); assay: as above; format: biochemical; details: read-out: KRAS G12V FRET IC50
KRAS G12V, sequence (P01116 other isoform, or with tags, fused parts or gaps G12V): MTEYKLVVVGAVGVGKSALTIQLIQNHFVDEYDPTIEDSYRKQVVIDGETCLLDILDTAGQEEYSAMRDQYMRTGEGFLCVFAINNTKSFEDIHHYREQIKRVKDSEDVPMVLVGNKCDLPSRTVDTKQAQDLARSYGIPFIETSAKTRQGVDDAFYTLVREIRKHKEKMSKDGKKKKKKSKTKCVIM
KRAS G12V, sequence (P62937 whole entry): as the sequence (P62937 whole entry) above
Procedure, shortened: as §2

[7] = target: KRAS G13C (Homo sapiens (Human), UniProt P01116+P62937, G13C); assay: as above; format: biochemical; details: read-out: KRAS G13C FRET IC50
KRAS G13C, sequence (P01116 other isoform, or with tags, fused parts or gaps G13C): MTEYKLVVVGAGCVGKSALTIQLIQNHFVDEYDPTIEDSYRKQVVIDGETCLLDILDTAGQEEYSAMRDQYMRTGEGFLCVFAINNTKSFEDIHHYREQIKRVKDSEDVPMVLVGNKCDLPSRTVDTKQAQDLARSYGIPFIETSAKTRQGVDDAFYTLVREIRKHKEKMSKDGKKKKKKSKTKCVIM
KRAS G13C, sequence (P62937 whole entry): as the sequence (P62937 whole entry) above
Procedure, shortened: as §2

[8] = target: KRAS G13D (Homo sapiens (Human), UniProt P01116+P62937, G13D); assay: as above; format: biochemical; details: read-out: KRAS G13D FRET data IC50
KRAS G13D, sequence (P01116 other isoform, or with tags, fused parts or gaps G13D): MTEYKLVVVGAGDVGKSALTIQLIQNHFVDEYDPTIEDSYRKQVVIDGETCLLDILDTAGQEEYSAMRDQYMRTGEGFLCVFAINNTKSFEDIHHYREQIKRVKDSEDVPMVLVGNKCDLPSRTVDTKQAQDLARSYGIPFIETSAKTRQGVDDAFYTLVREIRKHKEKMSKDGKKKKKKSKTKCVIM
KRAS G13D, sequence (P62937 whole entry): as the sequence (P62937 whole entry) above
Procedure, shortened: as §2

[9] = target: KRAS Q61H (Homo sapiens (Human), UniProt P01116+P62937, Q61H); assay: as above; format: biochemical
KRAS Q61H, sequence (P01116 other isoform, or with tags, fused parts or gaps Q61H): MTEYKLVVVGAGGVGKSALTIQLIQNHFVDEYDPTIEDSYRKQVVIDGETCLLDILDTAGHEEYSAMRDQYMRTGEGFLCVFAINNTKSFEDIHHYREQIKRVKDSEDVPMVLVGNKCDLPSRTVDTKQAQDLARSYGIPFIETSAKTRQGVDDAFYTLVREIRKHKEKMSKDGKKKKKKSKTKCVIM
KRAS Q61H, sequence (P62937 whole entry): as the sequence (P62937 whole entry) above
Procedure, shortened: as §2

[10] = target: KRAS WT (Homo sapiens (Human), UniProt P01116+P62937); assay: as above; format: biochemical; details: read-out: KRAS WT FRET data IC50
KRAS WT, sequence (P01116 other isoform, or with tags, fused parts or gaps): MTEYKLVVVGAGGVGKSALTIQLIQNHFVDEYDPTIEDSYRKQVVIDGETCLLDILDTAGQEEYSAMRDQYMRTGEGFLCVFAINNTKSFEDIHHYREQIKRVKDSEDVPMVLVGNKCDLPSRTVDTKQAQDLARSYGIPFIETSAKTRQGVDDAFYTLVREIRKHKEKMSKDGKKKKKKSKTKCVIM
KRAS WT, sequence (P62937 whole entry): as the sequence (P62937 whole entry) above
Procedure, shortened: as §2

[11] = target: NRAS G12C (Homo sapiens (Human), UniProt P01111+P62937, G12C); assay: as above; format: biochemical; details: read-out: NRAS G12C FRET data IC50
NRAS G12C, sequence (P01111 whole entry G12C): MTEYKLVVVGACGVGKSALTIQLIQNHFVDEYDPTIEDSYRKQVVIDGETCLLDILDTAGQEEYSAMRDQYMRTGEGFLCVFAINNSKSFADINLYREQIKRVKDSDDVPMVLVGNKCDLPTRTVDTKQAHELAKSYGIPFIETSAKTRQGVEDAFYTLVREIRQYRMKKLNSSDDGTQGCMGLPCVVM
NRAS G12C, sequence (P62937 whole entry): as the sequence (P62937 whole entry) above
Procedure, shortened: (§3)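 First, 25 μM Cyclophilin A, 12.5 nM His6-Ras-GMPPNP and 50 nM GST-BRAF RBD are mixed with diluted compound at pH 7.3. Next, 3 h at 25° C. Then 10 nM anti-His Eu-W1024 plus 50 nM anti-GST allophycocyanin for 1.5 h before TR-FRET reading.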

[12] = target: NRAS Q61K (Homo sapiens (Human), UniProt P01111+P62937, Q61K); assay: as above; format: biochemical
NRAS Q61K, sequence (P01111 whole entry Q61K): as the sequence (P01111 whole entry G12C) above, with C12G, Q61K counted along it
NRAS Q61K, sequence (P62937 whole entry): as the sequence (P62937 whole entry) above
Procedure, shortened: as §3

[13] = target: NRAS Q61R (Homo sapiens (Human), UniProt P01111+P62937, Q61R); assay: as above; format: biochemical
NRAS Q61R, sequence (P01111 whole entry Q61R): as the sequence (P01111 whole entry G12C) above, with C12G, Q61R counted along it
NRAS Q61R, sequence (P62937 whole entry): as the sequence (P62937 whole entry) above
Procedure, shortened: as §3

[14] = target: NRAS WT (Homo sapiens (Human), UniProt P01111+P62937); assay: as above; format: biochemical
NRAS WT, sequence (P01111 whole entry): as the sequence (P01111 whole entry G12C) above, with C12G counted along it
NRAS WT, sequence (P62937 whole entry): as the sequence (P62937 whole entry) above
Procedure, shortened: as §3

Structure (SMILES)	IC50 ([1]; K-Ras G12C, 5-day treatment) [nM]	IC50 ([2]; K-Ras G12V, 5-day treatment) [nM]	IC50 [3] [nM]	IC50 [4] [nM]	IC50 [5] [nM]	IC50 [6] [nM]	IC50 [7] [nM]	IC50 [8] [nM]	IC50 [9] [nM]	IC50 [10] [nM]	IC50 [11] [nM]	IC50 [12] [nM]	IC50 [13] [nM]	IC50 [14] [nM]	IC50 [1] [nM]	IC50 [2] [nM]
CCn1c(-c2cccnc2[C@H](C)OC)c2c3cc(ccc31)-c1csc(n1)C[C@H](NC(=O)[C@H](C(C)C)N(C)C(=O)N1CC(O)(COC)C1)C(=O)N1CCC[C@H](N1)C(=O)OCC(C)(C)C2 [Compound A553]	10 to 100	100 to 1000	100 to 1000	1000 to 10000	1000 to 10000	100 to 1000	100 to 1000	1000 to 10000	100 to 1000	100 to 1000	100 to 1000	100 to 1000	100 to 1000	100 to 1000		
CCn1c(-c2cccnc2[C@H](C)OC)c2c3cc(ccc31)-c1cc(O)cc(c1)C[C@H](NC(=O)[C@H](C(C)C)N(C)C(=O)[C@H]1C[C@H]1O)C(=O)N1CCC[C@H](N1)C(=O)OCC(C)(C)C2 [Compound A554]	100 to 1000	1000 to 10000	10 to 100	100 to 1000	10 to 100	10 to 100	10 to 100	100 to 1000	10 to 100	10 to 100	10 to 100	100 to 1000	100 to 1000	10 to 100		
CCn1c(-c2cccnc2[C@H](C)OC)c2c3cc(ccc31)-c1csc(n1)C[C@H](NC(=O)[C@H](C(C)C)N1CCC3(COC3)C1)C(=O)N1CCC[C@H](N1)C(=O)OCC(C)(C)C2 [Compound A561]	< 10	10 to 100	10 to 100	100 to 1000	10 to 100	100 to 1000	100 to 1000	100 to 1000	10 to 100	10 to 100	10 to 100	10 to 100	10 to 100	10 to 100		
CCn1c(-c2cccnc2[C@H](C)OC)c2c3cc(ccc31)-c1csc(n1)C[C@H](NC(=O)[C@H](C(C)C)N(C)C(=O)N(C)[C@@H]1CCN(C)C1)C(=O)N1CCC[C@H](N1)C(=O)OCC(C)(C)C2 [Compound A564]	10 to 100	100 to 1000	100 to 1000	100 to 1000	100 to 1000	100 to 1000	100 to 1000	100 to 1000	10 to 100	100 to 1000	100 to 1000	100 to 1000	100 to 1000	100 to 1000		
CCn1c(-c2cccnc2[C@H](C)OC)c2c3cc(ccc31)-c1csc(n1)C[C@H](NC(=O)[C@H](C(C)C)N(C)C(=O)N1CCCC3(CN(C)C3)C1)C(=O)N1CCC[C@H](N1)C(=O)OCC(C)(C)C2 [Compound A589]	10 to 100	100 to 1000	100 to 1000	100 to 1000	100 to 1000	100 to 1000	100 to 1000	100 to 1000	10 to 100	100 to 1000	100 to 1000	100 to 1000	100 to 1000	100 to 1000		
CCn1c(-c2cccnc2[C@H](C)OC)c2c3cc(ccc31)-c1cc(cc(C(F)F)c1)C[C@H](NC(=O)[C@H](C(C)C)N(C)C(=O)[C@@H]1OCC[C@@H]1c1ccccc1)C(=O)N1CCC[C@H](N1)C(=O)OCC(C)(C)C2 [Compound A592]			100 to 1000	1000 to 10000	1000 to 10000	1000 to 10000	100 to 1000	1000 to 10000	100 to 1000	1000 to 10000	100 to 1000	100 to 1000	1000 to 10000	1000 to 10000	100 to 1000	1000 to 10000
CCn1c(-c2cccnc2[C@H](C)OC)c2c3cc(ccc31)-c1csc(n1)C[C@H](NC(=O)[C@H](C(C)C)N(C)C(=O)N(C)C1CN(C)C1)C(=O)N1CCC[C@H](N1)C(=O)OCC(C)(C)C2 [Compound A611]	100 to 1000	100 to 1000	100 to 1000	100 to 1000	100 to 1000	1000 to 10000	100 to 1000	100 to 1000	100 to 1000	100 to 1000	100 to 1000	100 to 1000	100 to 1000	100 to 1000		
